What was measured:
[1] = tested on: HCT-116; assay: Selectivity index, ratio of IC50 for human TIG1 cells to IC50 for human HCT116 cells; format: functional
[2] = target: T1, Leukotriene A-4 hydrolase (Homo sapiens, UniProt P09960); assay: Inhibition of recombinant C-terminal His-tagged human LTA4H aminopeptidase activity expressed in Escherichia coli using L-alanine-4-nitro-anilide hydrochloride as substrate preincubated for 20 mins followed by substrate addition
T1 sequence (P09960 whole entry): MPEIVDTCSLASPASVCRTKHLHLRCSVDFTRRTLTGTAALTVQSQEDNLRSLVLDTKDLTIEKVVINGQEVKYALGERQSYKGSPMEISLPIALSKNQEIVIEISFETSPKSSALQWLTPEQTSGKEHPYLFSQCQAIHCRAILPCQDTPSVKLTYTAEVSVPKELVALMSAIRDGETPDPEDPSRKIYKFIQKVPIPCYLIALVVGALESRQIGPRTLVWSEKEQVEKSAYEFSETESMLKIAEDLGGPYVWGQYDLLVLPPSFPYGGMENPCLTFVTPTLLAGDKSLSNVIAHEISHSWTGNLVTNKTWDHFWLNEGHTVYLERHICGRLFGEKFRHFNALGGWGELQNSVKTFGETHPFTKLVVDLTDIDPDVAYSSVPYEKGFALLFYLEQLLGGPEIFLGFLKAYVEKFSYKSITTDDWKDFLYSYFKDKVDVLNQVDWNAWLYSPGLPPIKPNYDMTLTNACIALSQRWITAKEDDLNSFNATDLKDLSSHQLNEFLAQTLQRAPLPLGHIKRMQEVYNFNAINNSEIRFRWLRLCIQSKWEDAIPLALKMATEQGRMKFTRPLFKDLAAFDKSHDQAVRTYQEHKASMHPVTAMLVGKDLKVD

[3] = target: T1, Leukotriene A-4 hydrolase; assay: Inhibition of recombinant C-terminal His-tagged human LTA4H epoxide hydrolase activity expressed in Escherichia coli assessed as reduction in LTB4 production using LTA4 as substrate preincubated for 20 mins followed by substrate addition measured after 30 mins by enzyme immunoassay
[4] = Cytotoxicity against human HCT116 cells assessed as reduction in cell viability after 48 hrs by WST1 assay; format: functional, cell-based; settings: HCT-116, 48 h
[5] = Cytotoxicity against human TIG1 cells assessed as reduction in cell viability after 48 hrs by WST1 assay; format: toxicity, cell-based
[6] = Cytotoxicity against human HF19 cells assessed as reduction in cell viability after 48 hrs by WST1 assay; format: toxicity, cell-based

| Compound | IC50 [2] [µM] | IC50 [3] [µM] | Ratio IC50 [1] | IC50 [4] [µM] | IC50 at 48 h [5] [µM] | IC50 at 48 h [6] [µM] |
| --- | --- | --- | --- | --- | --- | --- |
| CCCCCC(CC(=O)CCc1ccc(O)c(OC)c1)OC (configuration not stated) | > 100 | > 100 |  | > 100 | > 100 | > 100 |
| Nc1nc(-c2ccc(Cc3ccccc3)cc2)cs1 | 7.61 | 12.4 | 2.76 | 30.5 | 84.3 | > 100 |
| CCCCCC(O)CC(=O)CCc1cc(OC)c(O)c(-c2cc(CCC(=O)CC(O)CCCCC)cc(OC)c2O)c1 (configuration not stated) | > 100 | 77.8 | 0.63 | > 100 | 63.1 | 54.8 |
| COc1ccc(CCC(C)=O)cc1OC | > 100 | > 100 |  | > 100 | > 100 | > 100 |
| CCCCC/C=C/C(=O)CCc1ccc(OC)c(OC)c1 | 4.92 | 11.3 | 52.3 | 1.54 | 80.6 | > 100 |
| CCCCCC(O)CC(=O)CCc1ccc(OCC=C(C)C)c(OC)c1 (configuration not stated) | 3.01 | 7.25 | 3.87 | 21.5 | 83.2 | > 100 |
| CC(C)=CCCC(C)[C@H]1CC=C(C)C(O)[C@H]1O (some centres not stated) | > 100 | > 100 | 1 | > 100 | > 100 | > 100 |
| CCCCC/C=C/C(=O)CCc1ccc(OC(C)=O)c(OC)c1 | 9.31 | 29.5 | 3.72 | 26.9 | > 100 | > 100 |
| CCCCCC(CC(=O)CCc1ccc(OC(C)=O)c(OC)c1)OC(C)=O (configuration not stated) | 22.1 | 27.6 | 3.23 | 30.9 | > 100 | > 100 |
| C=CCOc1ccc(CCC(=O)CC(O)CCCCC)cc1OC (configuration not stated) | 56.3 | 66.4 | 0.65 | > 100 | 64.6 | > 100 |
| CCCCCC(CC(=O)CCc1ccc(OC)c(OC)c1)OC (configuration not stated) | > 100 | > 100 |  | > 100 | > 100 | > 100 |
| CCCCC/C=C/C(=O)CCc1ccc(O)c(OC)c1 [SHOGAOL] | 12.5 | 24.6 | 7.77 | 12.9 | > 100 | > 100 |
| CC(C)C[C@H](NC(=O)[C@@H](O)[C@H](N)Cc1ccccc1)C(=O)O [UBENIMEX] |  |  |  | 42.5 | 77.8 | 89.5 |

More lines, main results first:

| IC50 [2] [µM] | IC50 [3] [µM] | Compound | Ratio IC50 [1] | IC50 [4] [µM] | IC50 at 48 h [5] [µM] | IC50 at 48 h [6] [µM] |
| --- | --- | --- | --- | --- | --- | --- |
| 56.1 | 58.3 | CCCCCC(O)CC(=O)CCc1ccc(O)c(OC)c1 (configuration not stated) | 1.67 | 45.1 | 75.2 | > 100 |
| > 100 | > 100 | CCCC(O)CC(=O)CCc1ccc(O)c(OC)c1 (configuration not stated) |  | > 100 | > 100 | > 100 |
| 21.6 | 15.2 | CCCCCCCCCC(O)CC(=O)CCc1ccc(O)c(OC)c1 (configuration not stated) | 3 | 33.4 | > 100 | > 100 |
| > 100 | > 100 | CCCCCCCC(O)CC(=O)CCc1ccc(O)c(OC)c1 (configuration not stated) | 0.55 | > 100 | 55.6 | 77.6 |
| 45.6 | 67.1 | CCCCC/C=C/CCC(O)CC(=O)CCc1ccc(O)c(OC)c1 (configuration not stated) | 2.17 | 46 | > 100 | 97.5 |
| > 100 | > 100 | CCCCCC(O)CC(=O)CCc1ccc(OC)c(OC)c1 (configuration not stated) | 1.21 | 76.5 | 92.8 | 88.4 |

— ChEMBL document CHEMBL3875224, “Synthesis, docking, cytotoxicity, and LTA4H inhibitory activity of new gingerol derivatives as potential colorectal cancer therapy” (Bioorg Med Chem, 2017)
